Reference: patent US9943499B2, “Lipase inhibitors for the treatment of pancreatitis and organ failure” (priority 2011, dated 2018)
Entries after “also recorded” stand apart in the source; their conditions may differ. Read-outs that look alike come from different tables or passages of the source.

How the values were obtained:
acinar cells = assay type: cell-based; details: for prevention of linoleic acid induced LDH leakage: 300 μM LA, 30 μM BAPTA or 1 mM EGTA, 90 minutes and 3 hours
From the text: Harvesting cells: Primary acinar cells from wild type mice (C57B6) were harvested and used as described previously. Viability, confirmed by trypan blue exclusion, was >95%. […] These were used in the individual experiments. Data presented is representative of 3 or more experiments.
Acinar culture: Acinar culture was done as described previously to study inflammatory mediator upregulation.
Calcium imaging: Acinar cells loaded with fura-2AM as described previously on 35-mm glass bottom culture dishes (MatTek corporation, Ashland, Mass.) were imaged on temperature-controlled motorized stage of an Olympus IX81 inverted microscope (Olympus America Inc, Melville, N.Y.) with a 20×0.70 NA objective and a QImaging Retiga EXi CCD camera (QImaging, Burnaby, Canada). Baseline images were taken, and cells with extremely bright or dim fluorescence were omitted. Fatty acids (linolenic, linoleic, oleic, stearic, and palmitic, 100-1200 μM final concentration) were added, and cytosolic calcium levels [Cai] were determined by alternate excitation at 340 nm and 380 nm, measuring emission at 510 nm. […] Image acquisition was with the MetaMorph 7.5 Imaging System (Molecular Devices, Downington, Pa.) using the MetaMorph 6.3 software. The 340/380 emission ratio were averaged for 7-25 acini per field, with background subtraction. Data presented is a mean from separate experiments.
Visceral fat triglyceride composition: The visceral fat triglyceride composition analysis was done at Kennedy Krieger Institute (Baltimore, Md.). Briefly, total lipids were extracted by the method of Folch. The total lipids were weighed and then separated into 4 fractions by column chromatography on silicic acid. The second fraction has the mono-, di- and triglycerides, the non-esterified fatty acids, and ceramides; 400 micrograms of the second fraction was taken and purified, and non-esterified acids, triglycerides, and diglycerides were collected by thin-layer chromatography on Silica Gel G plates. The fatty acids were derivatized and analyzed by GCMS as their pentafluorbenzylbromide esters. ATP levels, cytochrome C release, and % LDH leakage were measured as previously described. Apoptosis was measured by active caspase-3 [western blotting, activity assays (Enzcheck, Invitrogen, Carlsbad, Calif.)], TUNEL assays, and Hoechst dye nuclear incorporation (8 mg/ml Hoechst 33342 added for 15 minutes after treatment). […] Results were reported as % of cells with given nuclear changes. These were counter stained with PI (1 μM) to stain necrotic cells (FIG. 7A, B, C) and imaged with a Zeiss Meta dual fluorescence confocal microscope. PI-positive cells were counted as late apoptosis or necrosis. […] Autophagy was studied by western blotting for LC3-I and II. RNA was extracted using Trizol (Invitrogen, Carlsbad, Calif.). mRNA levels of TNF-α, CXCL1, and CXCL2 were measured as described previously using real time-PCR performed on an ABI Prism 7000 Sequence Detection System (Applied Biosystems, Foster City, Calif.) on proprietary Taqman Gene Expression assay reagents (Applied Biosystems). Mitochondrial complex assays and citrate synthase assay were done as described previously.

Male Wistar rats = experiment: Intraductal infusion of glyceryl trilinoleate (GTL) pancreatitis; assay type: in vivo; details: for mortality: intraductal GTL alone, GTL+orlistat 75 mg/ml, GTL+cetilistat 25 mg/ml, followed to day 5; for gross pancreatic appearance: hemorrhages and necrosis: intraductal GTL with or without lipase inhibitor
Protocol: Experiments were performed using a model, the technique of which is established and well described in rats (1, 2, 4, 7). This involves infusion of agents into the pancreatic duct to cause acute pancreatitis (1, 2, 4, 7). We will refer to this technique as “intraductal infusion”. We compared the severity of pancreatic damage and survival of rats after intraductal infusion of Glyceryl trilinoleate with and without the lipase inhibitor orlistat. In addition, we used a different lipase inhibitor-cetilistat (3, 6), and studied its efficacy in improving survival of rats in intraductal infusion pancreatitis induced with Glyceryl trilinoleate (GTL).
Male Wistar rats (250-350 gm), were anesthetized. Intraductal infusion of 0.1 ml (n=5) or 0.2 ml (n=5) of GTL (Sigma-Aldrich corporation) alone or GTL+orlistat (Caymen chemical, Ann Arbor, Mich.) (75 mg/ml, 0.1 ml n=5 or 0.2 ml n=5) or GTL+cetilistat (Jinan Wedo Industrial Co., Ltd., Jinan City, Shandong China) (25 mg/ml, 0.2 ml, n=10) was done as described previously (1, 2, 4, 7). All animals were given pain control (buprenorphine 200 mcg/kg BID), Cefazolin (100 mg/kg), and 10 cc saline subcutaneously BID as per the IACUC protocol. These were followed for survival.

[1] = in combination with GTL, at necropsy

C/C=C(/C)C(=O)O[C@H]1C(C)=C2[C@H]([C@@H]1OC(=O)CCCCCCC)[C@@](C)(OC(C)=O)C[C@H](OC(=O)CCC)[C@@]1(O)[C@H]2OC(=O)[C@@]1(C)O [thapsigargin]
600 μM LA induced intra-acinar calcium (Cai) increase (acinar cells; 1 μM thapsigargin, EGTA 1 mM): prevents

CCCCC/C=C\C/C=C\CCCCCCCC(=O)OCC(COC(=O)CCCCCCC/C=C\C/C=C\CCCCC)OC(=O)CCCCCCC/C=C\C/C=C\CCCCC [GTL, glyceryl trilinoleate]
mortality (Male Wistar rats; dead/total): 10/10 | first day mortality (Male Wistar rats; dead/total, intraductal GTL without further treatment): 10/10 | gross pancreatic appearance: hemorrhages and necrosis (Male Wistar rats): caused severe hemorrhages, and near total necrosis of the gland within 24 hours

CCCCCCCCCCCCCCCCOc1nc2ccc(C)cc2c(=O)o1 [cetilistat]
mortality (Male Wistar rats; dead/total): 2/10 | lung injury (TUNEL positive nuclei) (Male Wistar rats; [1]): nearly completely prevented | renal injury (TUNEL positive nuclei) (Male Wistar rats; [1]): nearly completely prevented; also recorded: absence of staining TUNEL positive nuclei | lung injury (TUNEL positive nuclei) (Male Wistar rats; in combination with GTL, at necropsy, listed as Cetilistat): absence of TUNEL positive nuclei | gross pancreatic appearance: hemorrhages and necrosis (Male Wistar rats): prevented the hemorrhages and necrosis up to 5 days

O=C(O)CN(CC(=O)O)c1ccccc1OCCOc1ccccc1N(CC(=O)O)CC(=O)O [BAPTA]
prevention of linoleic acid induced LDH leakage (acinar cells): partially prevented

O=C(O)CN(CCOCCOCCN(CC(=O)O)CC(=O)O)CC(=O)O [EGTA]
prevention of linoleic acid induced LDH leakage (acinar cells): ineffective | LDH leakage (acinar cells; 300 μM linoleic acid, EGTA 1 mM, 90 minute): 21.2±8.3% | LDH leakage (acinar cells; 300 μM linoleic acid, EGTA 1 mM, 3 hour): 54.6±6.4%

CCCCC/C=C\C/C=C\CCCCCCCC(=O)O [linoleic acid]
acinar mRNA levels of TNF-α, CXCL1 and CXCL2 (acinar cells; 200 μM fatty acid (sub-lethal)): increased | autophagy (LC3-II) and apoptosis (active caspase3) (acinar cells; 300 μM linoleic acid): not activated
